Laboratory results published in paper PMC3111206, “Phase I study of PD 0332991, a cyclin-dependent kinase inhibitor, administered in 3-week cycles (Schedule 2/1)” (British Journal of Cancer, 2011).
Read-outs that look alike come from different tables or passages of the source.

Columns and labels:
Rb-negative cell lines = test system: Rb-negative cell lines; parameters: method as in Fry et al, 2004; conditions: ref Fry et al, 2004, cited from earlier work
[1] = QTc interval from triplicate electrocardiograms; assay type: in vivo, human; conditions: Fridericia's correction
Procedure: Safety was assessed at baseline, at regular intervals throughout the study, and within 1 week following treatment discontinuation by recording AEs, haematological and biochemical parameters, and physical status (including ECOG performance status). Adverse event severity was graded using the National Cancer Institute Common Terminology Criteria for Adverse Events, version 3.0 ([Trotti et al, 2003]). Triplicate electrocardiograms (ECGs) ∼2 min apart were taken at baseline, 3 h post-dose on days 1, 8 and 15 of cycle 1, and on day 15 of subsequent cycles for up to six cycles.

[2] = Plasma pharmacokinetics, single dose and steady state; assay type: in vivo, human; conditions: for AUC(0-t): read-out: AUC(0–10), mean (%CV)
Procedure: Samples for measurement of PK parameters were collected from all patients pre-dose and at intervals up to 10 h post-dose following a single administration (cycle one, day 1) and after repeated dosing (cycle 1, day 8). In cycle 1, three additional blood samples for PK analysis were collected during the 7-day interval without treatment on days 15, 16 and 17. In addition a sample was collected from patients in the expanded MTD cohort 24 h post-dose on cycle 1, day 1. Urine PK assessments (0–10 h post-dose) were carried out on cycle 1, day 1 in patients in the expanded cohort. Blood draws for PK assessment were also obtained at the same time as ECG testing at the projected time-to-first occurrence of the maximum observed plasma concentration (Cmax). Individual area under the concentration–time curve (AUC) values estimated based on dose and individual apparent clearance (CL/F) was obtained from population PK modelling. Additional PK parameters assessed were the time-to-first occurrence of Cmax (Tmax), the apparent volume of distribution during the terminal phase (Vz/F), the terminal elimination half-life (t1/2) and the drug accumulation ratio (Rac).
Pharmacokinetics parameters were determined using non-compartmental analyses (WinNonLin version 4.1; Pharsight, Mountain View, CA, USA). Descriptive statistics for PK parameters were summarised by dosing group, day and cycle.

[3] = test system: Rb-positive solid tumours or non-Hodgkin's lymphoma; experiment: Tumour response by RECIST v1.0; assay type: in vivo, human
Procedure: Tumour measurements derived from computed tomography or magnetic resonance imaging scans were obtained at baseline, after every 2 cycles during the study, and at the end of treatment. Tumour responses were evaluated based on Response Evaluation Criteria in Solid Tumors, version 1.0 ([Therasse et al, 2000]).

[4] = test system: absolute neutrophil count (ANC); experiment: Pharmacodynamic Emax modelling of change in ANC vs individual AUC; assay type: in vivo; conditions: Homo sapiens, cycle 1, vs individual AUC, 30 patients, s.e. 11.2, 12.6% CV, read-out: Emax for ANC (change from baseline)
Procedure: To document the course of changes in absolute neutrophil count (ANC) and platelets over time during the first two cycles of treatment, an exploratory analysis of data available from the weekly safety laboratory tests was carried out. Possible relationships between PD 0332991 exposure and changes in (i) ANC and (ii) platelets were assessed further by fitting a simple model (without baseline) to determine the maximum […] (Emax).

[5] = Phase I dose escalation: dose-limiting toxicities, MTD and RP2D (Schedule 2/1); assay type: in vivo
Source text: This was a phase I, dose-finding, open-label, non-comparative study of PD 0332991 in patients with Rb-positive solid tumours or non-Hodgkin's lymphoma (NHL). […] On the basis of the low frequency of Rb expression in small-cell lung cancer and […] ([Lee et al, 1987]; [Yokota et al, 1988]; [Shimizu et al, 1994]), patients with both tumour types were excluded from the trial.
The primary objectives of this study were to establish the safety profile of PD 0332991 given in a 3-week treatment cycle by identifying dose-limiting toxicities (DLTs), the maximum administered dose and the maximum tolerated dose (MTD), and to establish the recommended dose for phase II studies (RP2D). Secondary objectives included characterisation of single-dose and steady-state pharmacokinetics (PKs) of oral PD 0332991 and evaluation of preliminary antitumour activity.
Cohorts of patients received escalating doses of PD 0332991 given daily for 2 weeks, followed by 1 week off treatment (Schedule 2/1). Treatment cycles were repeated until the occurrence of disease progression, unacceptable toxicity or withdrawal of consent.
Three to four evaluable patients were initially enrolled per dose-escalation cohort, and the cohort expanded to six evaluable patients, if a DLT occurred during the first treatment cycle. […] The MTD was defined as the highest dose level for which the incidence of first-cycle DLT was <2/6. Cohorts receiving the MTD were expanded to include a minimum of 12 patients. […]

[6] = test system: Rb-positive human xenograft models; parameters: method as in Fry et al, 2004; conditions: several Rb-positive human xenograft models in vivo; ref Fry et al, 2004; cited from earlier work

CC(=O)c1c(C)c2cnc(Nc3ccc(N4CCNCC4)cn3)nc2n(C2CCCC2)c1=O [PD 0332991]
Activity against Rb-negative cell lines (Rb-negative cell lines; in vitro): no activity
Anti-proliferative effect in vitro (Rb-negative cell lines; leading to cell-cycle arrest at G1): potent anti-proliferative effect
Patients with maximum on-treatment QTc ⩾500-msec or >30-msec increase from baseline [1]: no patients
Cmax, mean (%CV) ([2]; human, in vivo, 225 mg): 186 (64) ng ml^−1
Tmax, median (range) ([2]; human, in vivo, 225 mg): 4.5 (1.0–7.0) h
Cmax ([2]; human, in vivo, 225 mg, Cmax, mean (%CV)): 104 ng/mL
Tmax ([2]; human, in vivo, 225 mg, Tmax, median (range)): 4 h
AUC(0-t) ([2]; human, plasma, oral, 100 mg, plasma, 100 mg QD, Day 1 (n=2 per footnote a)): 333 ng·h/mL
Cmax ([2]; human, plasma, oral, 100 mg, plasma, 100 mg QD, Day 1 (n=3), read-out: Cmax, mean (%CV)): 44 ng/mL
Tmax ([2]; human, plasma, oral, 100 mg, plasma, 100 mg QD, Day 1 (n=3), read-out: Tmax, median (range)): 4 h
AUC(0-t) ([2]; human, plasma, oral, 100 mg, plasma, 100 mg QD, Day 8 (n=2 per footnote a)): 433 ng·h/mL
Cmax ([2]; human, plasma, oral, 100 mg, plasma, 100 mg QD, Day 8 (n=3), read-out: Cmax, mean (%CV)): 58 ng/mL
Tmax ([2]; human, plasma, oral, 100 mg, plasma, 100 mg QD, Day 8 (n=3), read-out: Tmax, median (range)): 4 h
AUC(0-t) ([2]; human, plasma, oral, 150 mg, plasma, 150 mg QD, Day 1 (n=2 per footnote a)): 622 ng·h/mL
Cmax ([2]; human, plasma, oral, 150 mg, plasma, 150 mg QD, Day 1 (n=4), read-out: Cmax, mean (%CV)): 78 ng/mL
Tmax ([2]; human, plasma, oral, 150 mg, plasma, 150 mg QD, Day 1 (n=4), read-out: Tmax, median (range)): 6 h
AUC(0-t) ([2]; human, plasma, oral, 150 mg, plasma, 150 mg QD, Day 8 (n=3)): 1600 ng·h/mL
Cmax ([2]; human, plasma, oral, 150 mg, plasma, 150 mg QD, Day 8 (n=3), read-out: Cmax, mean (%CV)): 194 ng/mL
Tmax ([2]; human, plasma, oral, 150 mg, plasma, 150 mg QD, Day 8 (n=3), read-out: Tmax, median (range)): 7 h
AUC(0-t) ([2]; human, plasma, oral, 200 mg, plasma, 200 mg QD, Day 1 (n=19 per footnote a)): 525 ng·h/mL
Cmax ([2]; human, plasma, oral, 200 mg, plasma, 200 mg QD, Day 1 (n=20), read-out: Cmax, mean (%CV)): 81 ng/mL
Tmax ([2]; human, plasma, oral, 200 mg, plasma, 200 mg QD, Day 1 (n=20), read-out: Tmax, median (range)): 5.7 h
AUC(0-t) ([2]; human, plasma, oral, 200 mg, plasma, 200 mg QD, Day 8 (n=8)): 1400 ng·h/mL
Cmax ([2]; human, plasma, oral, 200 mg, plasma, 200 mg QD, Day 8 (n=8), read-out: Cmax, mean (%CV)): 174 ng/mL
Tmax ([2]; human, plasma, oral, 200 mg, plasma, 200 mg QD, Day 8 (n=8), read-out: Tmax, median (range)): 4 h
Vd/F ([2]; human, plasma, oral, steady state, 200-mg QD cohort, read-out: Vz/F (apparent volume of distribution), mean): 3240 L
half-life ([2]; human, plasma, oral, steady state, 200-mg QD cohort, read-out: t1/2 (terminal elimination half-life), mean (converted)): 26.7 h
CL/F, mean ([2]; steady state, 200-mg QD cohort): 88.5 l per hour
Patients with partial response (PR) ([3]; 31 evaluable patients, testicular cancer, 200 mg QD, Schedule 2/1): one
Duration of stable disease ([3]; one patient with angiomyxoma, 200-mg QD cohort): 19 cycles
Duration of stable disease ([3]; one patient with liposarcoma, 100-mg QD cohort): 11 cycles
Duration of stable disease ([3]; one patient with liposarcoma, 225-mg QD cohort): ≥ 23 cycles
Emax [4]: 88.6%
Dose recommended for phase II study ([5]; human, in vivo): 200 mg QD
Maximum administered dose ([5]; human, in vivo, po): 225 mg QD
Maximum tolerated dose (MTD) ([5]; oral, Schedule 2/1 (14 days on, 7 days off)): 200 mg QD
Effect on tumour growth [6]: significantly reduces tumour growth and leads to tumour regression
